Assay [1] deals with HEK293 cells cotransfected with the FOP control vector. Description: HEK293 FOP assay (control reporter with non-functional TCF elements). The assay is classed as cell-based. As to conditions: Homo sapiens, 16 hours. The essentials: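 Stable HEK293 line carrying FOP control reporter (randomized non-functional TCF sites, with pcDNA3), Geneticin-selected, plated 24 h before assay. Stimulated with recombinant human Wnt-3a (2500-5 ng/ml) and compounds 50 μM–15 nM (3.16-fold steps) in CAFTY buffer pH 7.4 with 2 mM Ca2+, 0.01% BSA, run parallel to TOP line.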

Assay [2] has as its system wildtype Wnt signaling cascade. The experiment in a line: HEK293 TOP assay (Super TopFlash luciferase reporter, Wnt-3a stimulated). The format is cell-based. As to conditions: Homo sapiens, HEK293, 16 h, HEK293 TOP reporter cells, Wnt3a at EC50, 16 hours. The method, boiled down: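 HEK293 cells stably carrying Super TopFlash (TOP) run in parallel with FOP cells, 10000/well plated 24 h ahead, stimulated with recombinant human Wnt-3a. Compounds tested 50 μM to 15 nM in 3.16-fold steps in CAFTY buffer pH 7.4 with 2 mM Ca^2+ and 0.01% BSA; luciferase read-out.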

A further assay has as its target T1, TNKS2 (Homo sapiens, UniProt Q9H2K2).
T1 construct: purchased BPS Bioscience, San Diego, USA 80572 (TNKS2 Histone Ribosylation Assay Kit)
T1 sequence (Q9H2K2 1-1166): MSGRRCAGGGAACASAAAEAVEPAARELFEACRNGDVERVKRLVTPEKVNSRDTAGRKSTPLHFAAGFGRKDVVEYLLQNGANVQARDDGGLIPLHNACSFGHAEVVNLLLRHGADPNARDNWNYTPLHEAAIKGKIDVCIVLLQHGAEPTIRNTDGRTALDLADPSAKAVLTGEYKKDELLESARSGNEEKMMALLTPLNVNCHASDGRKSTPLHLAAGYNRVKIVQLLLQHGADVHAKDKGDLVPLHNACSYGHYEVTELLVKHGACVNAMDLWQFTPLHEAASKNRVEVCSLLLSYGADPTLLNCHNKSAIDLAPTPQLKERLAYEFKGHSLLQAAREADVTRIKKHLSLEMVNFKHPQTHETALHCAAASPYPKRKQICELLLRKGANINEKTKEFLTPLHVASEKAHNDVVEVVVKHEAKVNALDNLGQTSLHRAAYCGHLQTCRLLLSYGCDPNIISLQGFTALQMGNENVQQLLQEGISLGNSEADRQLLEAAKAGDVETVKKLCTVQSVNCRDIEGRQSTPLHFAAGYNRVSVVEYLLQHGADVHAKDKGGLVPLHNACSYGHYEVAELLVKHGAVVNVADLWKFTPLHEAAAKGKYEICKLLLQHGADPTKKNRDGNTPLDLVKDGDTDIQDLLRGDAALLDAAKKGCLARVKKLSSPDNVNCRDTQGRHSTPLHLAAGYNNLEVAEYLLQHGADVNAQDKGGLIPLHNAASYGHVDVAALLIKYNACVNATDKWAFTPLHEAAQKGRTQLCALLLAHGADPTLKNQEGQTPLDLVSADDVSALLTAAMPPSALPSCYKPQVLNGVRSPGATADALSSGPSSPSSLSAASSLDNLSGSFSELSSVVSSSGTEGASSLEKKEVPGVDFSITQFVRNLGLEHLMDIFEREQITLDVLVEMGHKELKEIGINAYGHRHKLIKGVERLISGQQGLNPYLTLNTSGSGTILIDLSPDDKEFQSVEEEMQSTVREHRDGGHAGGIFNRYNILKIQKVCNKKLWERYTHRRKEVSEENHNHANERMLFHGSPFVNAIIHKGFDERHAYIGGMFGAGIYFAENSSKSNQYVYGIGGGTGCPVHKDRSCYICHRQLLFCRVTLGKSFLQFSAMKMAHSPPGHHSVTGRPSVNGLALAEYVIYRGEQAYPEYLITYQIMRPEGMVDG
The experiment in a line: TNKS2 Assay B (auto-parsylation, [3H]-NAD+ SPA). The format is biochemical. As to conditions: 6 nM TNKS2, auto-parsylation, over night at room temperature.

On to `CN(C)C1CN(C(=O)c2nc[nH]c2C(=O)N[C@H]2CC[C@H](C(=O)Nc3ccc(F)cc3Cl)CC2)C1` [Example 26, N-{trans-4-[(2-chloro-4-fluorophenyl)carbamoyl]cyclohexyl}-4-{[3-(dimethylamino)azetidin-1-yl]carbonyl}-1H-imidazole-5-carboxamide], for which the IC50 is at least 50000 nM in assay [1], 140 nM in assay [2] and 80 nM at TNKS2.
The matching figures for `CC(C)OCCNC(=O)c1nc[nH]c1C(=O)N[C@H]1CC[C@H](C(=O)Nc2ccc(F)cc2Cl)CC1` [Example 76, N^5-{trans-4-[(2-chloro-4-fluorophenyl)carbamoyl]cyclohexyl}-N^4-(2-isopropoxyethyl)-1H-imidazole-4,5-dicarboxamide]: at least 50000 nM, 230 nM and 78 nM.
The like results for `Cc1cc(C(C)(C)C)n2ncc(C(=O)N[C@H]3CC[C@H](C(=O)Nc4ccc(F)cc4Cl)CC3)c2n1` [Example 60, 7-tert-butyl-N-{trans-4-[(2-chloro-4-fluorophenyl)carbamoyl]cyclohexyl}-5-methylpyrazolo[1,5-a]pyrimidine-3-carboxamide] were, in that order, 24000 nM, 620 nM and 2200 nM.
The like results for `Cc1cnc2c(C(=O)N[C@H]3CC[C@H](C(=O)Nc4ccc(F)cc4Cl)CC3)cnn2c1` [Example 61, N-{trans-4-[(2-chloro-4-fluorophenyl)carbamoyl]cyclohexyl}-6-methylpyrazolo[1,5-a]pyrimidine-3-carboxamide] were, in that order, at least 50000 nM, 21 nM and 34 nM.
Consider `CNC(=O)c1[nH]cnc1C(=O)NC1CCC(F)(C(=O)Nc2ccc(F)cc2Cl)CC1` (single isomer, unassigned) [Example 366, N^4-{4-[(2-chloro-4-fluorophenyl)carbamoyl]-4-fluorocyclohexyl}-N^5-methyl-1H-imidazole-4,5-dicarboxamide (single isomer)], for which the 50% inhibitory concentration (IC50) in assay [1] is at least 50000 nM; in assay [2] it was 25000 nM; against TNKS2, above 10000 nM.
The matching figures for `COC(C)CNC(=O)c1nc[nH]c1C(=O)N[C@H]1CC[C@H](C(=O)Nc2c(F)cc(F)cc2Cl)CC1` (stereo partly drawn) [Example 68, N^5-{trans-4-[(2-chloro-4,6-difluorophenyl)carbamoyl]cyclohexyl}-N^4-(2-methoxypropyl)-1H-imidazole-4,5-dicarboxamide]: 33000 nM, 120 nM and 79 nM.
The like results for `O=C(NCC1CCCO1)c1nc[nH]c1C(=O)N[C@H]1CC[C@H](C(=O)Nc2c(F)cc(F)cc2Cl)CC1` (stereo in doubt) [Example 71, N^5-{trans-4-[(2-chloro-4,6-difluorophenyl)carbamoyl]cyclohexyl}-N^4-[(2R)-tetrahydrofuran-2-ylmethyl]-1H-imidazole-4,5-dicarboxamide] were, in that order, 23000 nM, 100 nM and 66 nM.
As for `COC(=O)c1cc(C)nc2c(C(=O)N[C@H]3CC[C@H](C(=O)Nc4c(F)cc(F)cc4Cl)CC3)cnn12` [Example 351, methyl 3-({trans-4-[(2-chloro-4,6-difluorophenyl)carbamoyl]cyclohexyl}carbamoyl)-5-methylpyrazolo[1,5-a]pyrimidine-7-carboxylate], the 50% inhibitory concentration (IC50) in assay [1] is at least 50000 nM; in assay [2], 6700 nM; at TNKS2, 56 nM.
With `Cc1c(C(C)O)cnc2c(C(=O)N[C@H]3CC[C@H](C(=O)Nc4ccc(F)cc4Cl)CC3)cnn12` (stereo partly drawn) [Example 58, N-{trans-4-[(2-chloro-4-fluorophenyl)carbamoyl]cyclohexyl}-6-(1-hydroxyethyl)-7-methylpyrazolo[1,5-a]pyrimidine-3-carboxamide], the half-maximal inhibitory concentration (IC50) in assay [1] was at least 50000 nM; in assay [2], 1100 nM; on TNKS2, 710 nM.
The matching figures for `CCNC(=O)c1nc[nH]c1C(=O)N[C@H]1CC[C@@]2(CCN(c3cc(C)c(F)cc3Cl)C2=O)CC1` [Example 289, N^5-[(trans)-2-(2-chloro-4-fluoro-5-methylphenyl)-1-oxo-2-azaspiro[4.5]dec-8-yl]-N^4-ethyl-1H-imidazole-4,5-dicarboxamide]: 16000 nM, 1.8 nM and 2.9 nM.
The matching figures for `Cc1cc(C)n2ncc(C(=O)N[C@H]3CC[C@H](C(=O)Nc4ccc(F)cc4Cl)CC3)c2n1` [Example 44, N-{trans-4-[(2-chloro-4-fluorophenyl)carbamoyl]cyclohexyl}-5,7-dimethylpyrazolo[1,5-a]pyrimidine-3-carboxamide]: at least 50000 nM, 81 nM and 150 nM.
The like results for `COC[C@@H](C)NC(=O)c1nc[nH]c1C(=O)N[C@H]1CC[C@H](C(=O)Nc2c(F)cc(F)cc2Cl)CC1` [Example 67, N^5-{trans-4-[(2-chloro-4,6-difluorophenyl)carbamoyl]cyclohexyl}-N^4-[(2R)-1-methoxypropan-2-yl]-1H-imidazole-4,5-dicarboxamide] were, in that order, at least 50000 nM, 220 nM and 280 nM.
For the compound `O=C(N[C@H]1CC[C@@]2(CCN(c3cc(F)c(F)cc3Cl)C2=O)CC1)c1cnc2cccnn12` [Example 298, N-[(trans)-2-(2-chloro-4,5-difluorophenyl)-1-oxo-2-azaspiro[4.5]dec-8-yl]imidazo[1,2-b]pyridazine-3-carboxamide], the IC50 is at least 50000 nM in assay [1], 4.9 nM in assay [2] and 2 nM against TNKS2.
As for `O=C(NC1CCC(F)(C(=O)Nc2ccc(F)cc2Cl)CC1)c1cnn2cccnc12` (single isomer, unassigned) [Example 365, N-{4-[(2-chloro-4-fluorophenyl)carbamoyl]-4-fluorocyclohexyl}pyrazolo[1,5-a]pyrimidine-3-carboxamide (single isomer)], the IC50 is 35000 nM in assay [1], 21000 nM in assay [2] and above 10000 nM on TNKS2.
With `O=C(N[C@H]1CC[C@H](C(=O)Nc2ccc(F)cc2Cl)CC1)c1cnn2cccnc12` [Example 43, N-{trans-4-[(2-chloro-4-fluorophenyl)carbamoyl]cyclohexyl}pyrazolo[1,5-a]pyrimidine-3-carboxamide], the half-maximal inhibitory concentration (IC50) was at least 50000 nM in assay [1], 130 nM in assay [2] and 74 nM against TNKS2.
The matching figures for `Cc1cc(NC(=O)[C@H]2CC[C@H](NC(=O)c3[nH]cnc3C(=O)NCC3CCCO3)CC2)c(Cl)cc1F` (stereo partly drawn) [Example 64, N^5-{trans-4-[(2-chloro-4-fluoro-5-methylphenyl)carbamoyl]cyclohexyl}-N^4-(tetrahydrofuran-2-ylmethyl)-1H-imidazole-4,5-dicarboxamide]: 27000 nM, 740 nM and 49 nM.
The matching figures for `CNC(=O)c1nc[nH]c1C(=O)N[C@H]1CC[C@H](C(=O)Nc2cc(C)c(F)cc2Cl)CC1` [Example 63, N^5-{trans-4-[(2-chloro-4-fluoro-5-methylphenyl)carbamoyl]cyclohexyl}-N^4-methyl-1H-imidazole-4,5-dicarboxamide]: at least 50000 nM, 54 nM and 31 nM.
For the compound `O=C(NCCC1CC1)c1nc[nH]c1C(=O)N[C@H]1CC[C@H](C(=O)Nc2ccc(F)cc2Cl)CC1` [Example 74, N^5-{trans-4-[(2-chloro-4-fluorophenyl)carbamoyl]cyclohexyl}-N^4-(2-cyclopropylethyl)-1H-imidazole-4,5-dicarboxamide], the IC50 amounted to 32000 nM in assay [1], 190 nM in assay [2] and 73 nM at TNKS2.

Usually IC50 stands for the concentration at which inhibition is half-maximal.

The values above are taken from patent US20180148418A1, “AMIDO-SUBSTITUTED CYCLOHEXANE DERIVATIVES” (Bayer Pharma Aktiengesellschaft, priority 2015, published 2018).
